Laboratory results taken from ChEMBL document CHEMBL4219190, “Studies on synthesis of novel pyrido[2,3-d]pyrimidine derivatives, evaluation of their antimicrobial activity and molecular docking” (Bioorg Med Chem Lett, 2018).
Values after ≈ are worked out from the molar mass of the structure shown. Active and inactive are the calls of the source. No cut-off for these calls is given here.

Legend:
[1] = system: Bacillus subtilis; experiment: Bactericidal activity against Bacillus subtilis MTCC 121 incubated for 24 hrs followed by transfer of microbial suspension to Mueller Hinton agar plates and measured after 24 hrs post transfer; assay type: functional; conditions: MTCC 121, 24 h
[2] = system: Candida albicans; experiment: Inhibition of ergosterol in Candida albicans MTCC 183 after 20 hrs by UV spectrophotometric method; assay type: functional, organism-based
[3] = system: Bacillus subtilis; experiment: Antibacterial activity against Bacillus subtilis MTCC 121 after 24 hrs by well diffusion method; assay type: functional; conditions: MTCC 121, 24 h
[4] = system: Staphylococcus aureus; experiment: Antibacterial activity against Staphylococcus aureus MTCC 96 after 24 hrs by well diffusion method; assay type: functional; conditions: MTCC 96, 24 h
[5] = system: Staphylococcus aureus; experiment: Antibacterial activity against Staphylococcus aureus MLS16 MTCC 2940 after 24 hrs by well diffusion method; assay type: functional; conditions: MLS16 MTCC 2940, 24 h
[6] = system: Micrococcus luteus; experiment: Antibacterial activity against Micrococcus luteus MTCC 2470 after 24 hrs by well diffusion method; assay type: functional; conditions: MTCC 2470, 24 h
[7] = system: Raoultella planticola; experiment: Antibacterial activity against Klebsiella planticola MTCC 530 after 24 hrs by well diffusion method; assay type: functional; conditions: MTCC 530, 24 h
[8] = system: Escherichia coli; experiment: Antibacterial activity against Escherichia coli MTCC 739 after 24 hrs by well diffusion method; assay type: functional; conditions: MTCC 739, 24 h
[9] = system: Pseudomonas aeruginosa; experiment: Antibacterial activity against Pseudomonas aeruginosa MTCC 2453 after 24 hrs by well diffusion method; assay type: functional; conditions: MTCC 2453, 24 h
[10] = system: Staphylococcus aureus; experiment: Bactericidal activity against Staphylococcus aureus MTCC 96 incubated for 24 hrs followed by transfer of microbial suspension to Mueller Hinton agar plates and measured after 24 hrs post transfer; assay type: functional; conditions: MTCC 96, 24 h
[11] = system: Staphylococcus aureus; experiment: Bactericidal activity against Staphylococcus aureus MLS16 MTCC 2940 incubated for 24 hrs followed by transfer of microbial suspension to Mueller Hinton agar plates and measured after 24 hrs post transfer; assay type: functional; conditions: MLS16 MTCC 2940, 24 h
[12] = system: Micrococcus luteus; experiment: Bactericidal activity against Micrococcus luteus MTCC 2470 incubated for 24 hrs followed by transfer of microbial suspension to Mueller Hinton agar plates and measured after 24 hrs post transfer; assay type: functional; conditions: MTCC 2470, 24 h
[13] = system: Raoultella planticola; experiment: Bactericidal activity against Klebsiella planticola MTCC 530 incubated for 24 hrs followed by transfer of microbial suspension to Mueller Hinton agar plates and measured after 24 hrs post transfer; assay type: functional; conditions: MTCC 530, 24 h
[14] = system: Escherichia coli; experiment: Bactericidal activity against Escherichia coli MTCC 739 incubated for 24 hrs followed by transfer of microbial suspension to Mueller Hinton agar plates and measured after 24 hrs post transfer; assay type: functional; conditions: MTCC 739, 24 h
[15] = system: Pseudomonas aeruginosa; experiment: Bactericidal activity against Pseudomonas aeruginosa MTCC 2453 incubated for 24 hrs followed by transfer of microbial suspension to Mueller Hinton agar plates and measured after 24 hrs post transfer; assay type: functional; conditions: MTCC 2453, 24 h
[16] = system: Candida albicans; experiment: Antifungal activity against Candida albicans MTCC 183 after 24 hrs by well diffusion method; assay type: functional; conditions: MTCC 183, 24 h
[17] = system: Candida albicans; experiment: Antifungal activity against Candida albicans MTCC 227 after 24 hrs by well diffusion method; assay type: functional; conditions: MTCC 227, 24 h
[18] = system: Candida albicans; experiment: Antifungal activity against Candida albicans MTCC 854 after 24 hrs by well diffusion method; assay type: functional; conditions: MTCC 854, 24 h
[19] = system: Candida albicans; experiment: Antifungal activity against Candida albicans MTCC 1637 after 24 hrs by well diffusion method; assay type: functional; conditions: MTCC 1637, 24 h
[20] = system: Candida albicans; experiment: Antifungal activity against Candida albicans MTCC 3018 after 24 hrs by well diffusion method; assay type: functional; conditions: MTCC 3018, 24 h
[21] = system: Candida albicans; experiment: Antifungal activity against Candida albicans MTCC 3017 after 24 hrs by well diffusion method; assay type: functional; conditions: MTCC 3017, 24 h
[22] = system: Candida albicans; experiment: Antifungal activity against Candida albicans MTCC 3958 after 24 hrs by well diffusion method; assay type: functional; conditions: MTCC 3958, 24 h
[23] = system: Candida albicans; experiment: Antifungal activity against Candida albicans MTCC 4748 after 24 hrs by well diffusion method; assay type: functional; conditions: MTCC 4748, 24 h
[24] = system: Candida albicans; experiment: Antifungal activity against Candida albicans MTCC 7315 after 24 hrs by well diffusion method; assay type: functional; conditions: MTCC 7315, 24 h
[25] = system: Candida parapsilosis; experiment: Antifungal activity against Candida parapsilosis MTCC 1744 after 24 hrs by well diffusion method; assay type: functional; conditions: MTCC 1744, 24 h
[26] = system: [Candida] aaseri; experiment: Antifungal activity against Candida aaseri MTCC 1962 after 24 hrs by well diffusion method; assay type: functional; conditions: Yamadazyma aaseri, MTCC 1962, 24 h
[27] = system: Nakaseomyces glabratus; experiment: Antifungal activity against Candida glabrata MTCC 3019 after 24 hrs by well diffusion method; assay type: functional
[28] = system: Pichia kudriavzevii; experiment: Antifungal activity against Candida krusei MTCC 3020 after 24 hrs by well diffusion method; assay type: functional
[29] = system: Pichia sporocuriosa; experiment: Antifungal activity against Issatchenkia hanoiensis MTCC 4755 after 24 hrs by well diffusion method; assay type: functional; conditions: MTCC 4755, 24 h
[30] = system: Candida albicans; experiment: Fungicidal activity against Candida albicans MTCC 183 incubated for 24 hrs followed by transfer of microbial suspension to Sabouraud dextrose agar plates and measured after 24 hrs post transfer; assay type: functional; conditions: MTCC 183, 24 h
[31] = system: Candida albicans; experiment: Fungicidal activity against Candida albicans MTCC 227 incubated for 24 hrs followed by transfer of microbial suspension to Sabouraud dextrose agar plates and measured after 24 hrs post transfer; assay type: functional; conditions: MTCC 227, 24 h
[32] = system: Candida albicans; experiment: Fungicidal activity against Candida albicans MTCC 854 incubated for 24 hrs followed by transfer of microbial suspension to Sabouraud dextrose agar plates and measured after 24 hrs post transfer; assay type: functional; conditions: MTCC 854, 24 h
[33] = system: Candida albicans; experiment: Fungicidal activity against Candida albicans MTCC 1637 incubated for 24 hrs followed by transfer of microbial suspension to Sabouraud dextrose agar plates and measured after 24 hrs post transfer; assay type: functional; conditions: MTCC 1637, 24 h
[34] = system: Candida albicans; experiment: Fungicidal activity against Candida albicans MTCC 3017 incubated for 24 hrs followed by transfer of microbial suspension to Sabouraud dextrose agar plates and measured after 24 hrs post transfer; assay type: functional; conditions: MTCC 3017, 24 h
[35] = system: Candida albicans; experiment: Fungicidal activity against Candida albicans MTCC 3018 incubated for 24 hrs followed by transfer of microbial suspension to Sabouraud dextrose agar plates and measured after 24 hrs post transfer; assay type: functional; conditions: MTCC 3018, 24 h
[36] = system: Candida albicans; experiment: Fungicidal activity against Candida albicans MTCC 3958 incubated for 24 hrs followed by transfer of microbial suspension to Sabouraud dextrose agar plates and measured after 24 hrs post transfer; assay type: functional; conditions: MTCC 3958, 24 h
[37] = system: Candida albicans; experiment: Fungicidal activity against Candida albicans MTCC 4748 incubated for 24 hrs followed by transfer of microbial suspension to Sabouraud dextrose agar plates and measured after 24 hrs post transfer; assay type: functional; conditions: MTCC 4748, 24 h
[38] = system: Candida albicans; experiment: Fungicidal activity against Candida albicans MTCC 7315 incubated for 24 hrs followed by transfer of microbial suspension to Sabouraud dextrose agar plates and measured after 24 hrs post transfer; assay type: functional; conditions: MTCC 7315, 24 h
[39] = system: Candida parapsilosis; experiment: Fungicidal activity against Candida parapsilosis MTCC 1744 incubated for 24 hrs followed by transfer of microbial suspension to Sabouraud dextrose agar plates and measured after 24 hrs post transfer; assay type: functional; conditions: Lodderomyces parapsilosis, MTCC 1744, 24 h
[40] = system: [Candida] aaseri; experiment: Fungicidal activity against Candida aaseri MTCC 1962 incubated for 24 hrs followed by transfer of microbial suspension to Sabouraud dextrose agar plates and measured after 24 hrs post transfer; assay type: functional; conditions: Yamadazyma aaseri, MTCC 1962, 24 h
[41] = system: Nakaseomyces glabratus; experiment: Fungicidal activity against Candida glabrata MTCC 3019 incubated for 24 hrs followed by transfer of microbial suspension to Sabouraud dextrose agar plates and measured after 24 hrs post transfer; assay type: functional
[42] = system: Pichia kudriavzevii; experiment: Fungicidal activity against Candida krusei MTCC 3020 incubated for 24 hrs followed by transfer of microbial suspension to Sabouraud dextrose agar plates and measured after 24 hrs post transfer; assay type: functional
[43] = system: Pichia sporocuriosa; experiment: Fungicidal activity against Issatchenkia hanoiensis MTCC 4755 incubated for 24 hrs followed by transfer of microbial suspension to Sabouraud dextrose agar plates and measured after 24 hrs post transfer; assay type: functional; conditions: MTCC 4755, 24 h
[44] = system: Bacillus subtilis; experiment: Antibiofilm activity against Bacillus subtilis MTCC 121 after 24 hrs by crystal violet staining-based assay; assay type: functional, organism-based; conditions: Bacillus subtilis, MTCC 121, 24 h; read-out: IC50
[45] = system: Staphylococcus aureus; experiment: Antibiofilm activity against Staphylococcus aureus MTCC 96 after 24 hrs by crystal violet staining-based assay; assay type: functional, organism-based; conditions: Staphylococcus aureus, MTCC 96, 24 h; read-out: IC50
[46] = system: Staphylococcus aureus; experiment: Antibiofilm activity against Staphylococcus aureus MLS16 MTCC 2940 after 24 hrs by crystal violet staining-based assay; assay type: functional, organism-based; conditions: Staphylococcus aureus, MLS16 MTCC 2940, 24 h; read-out: IC50
[47] = system: Pseudomonas aeruginosa; experiment: Antibiofilm activity against Pseudomonas aeruginosa MTCC 2453 after 24 hrs by crystal violet staining-based assay; assay type: functional, organism-based; conditions: Pseudomonas aeruginosa, MTCC 2453, 24 h; read-out: IC50
[48] = system: Raoultella planticola; experiment: Antibiofilm activity against Klebsiella planticola MTCC 530 after 24 hrs by crystal violet staining-based assay; assay type: functional, organism-based; conditions: Klebsiella planticola, MTCC 530, 24 h; read-out: IC50

MIC [3]: 15.6 µg/mL (≈ 32.7 µM) | MIC [4]: 7.8 µg/mL (≈ 16.3 µM) | MIC [5]: 15.6 µg/mL (≈ 32.7 µM) | MIC [6]: 15.6 µg/mL (≈ 32.7 µM) | MIC [8]: 15.6 µg/mL (≈ 32.7 µM) | MIC [9]: 31.2 µg/mL (≈ 65.3 µM) | MIC [16]: 3.9 µg/mL (≈ 8.17 µM) | MIC [17]: 3.9 µg/mL (≈ 8.17 µM) | MIC [18]: 7.8 µg/mL (≈ 16.3 µM) | MIC [19]: 7.8 µg/mL (≈ 16.3 µM) | MIC [20]: 15.6 µg/mL (≈ 32.7 µM) | MIC [21]: 3.9 µg/mL (≈ 8.17 µM) | MIC [22]: 7.8 µg/mL (≈ 16.3 µM) | MIC [23]: 15.6 µg/mL (≈ 32.7 µM) | MIC [24]: 31.2 µg/mL (≈ 65.3 µM) | MIC [25]: 31.2 µg/mL (≈ 65.3 µM) | MIC [26]: 7.8 µg/mL (≈ 16.3 µM) | MIC [27]: inactive | MIC [28]: inactive | MIC [29]: 15.6 µg/mL (≈ 32.7 µM) | IC50 [44]: 10.8 µg/mL (≈ 22.6 µM) | IC50 [45]: 5.4 µg/mL (≈ 11.3 µM) | IC50 [46]: 10.8 µg/mL (≈ 22.6 µM) | IC50 [47]: 21.6 µg/mL (≈ 45.2 µM)
SMILES: CN1CCN(C(=O)c2nc(-c3ccccc3)c3c(C(F)(F)F)cc(-c4ccccc4)nc3n2)CC1
MBC [1]: 31.2 µg/mL (≈ 65.3 µM) | inhibition [2]: Dose-dependent effect | MIC [7]: 31.2 µg/mL (≈ 65.3 µM) | MBC [10]: 15.6 µg/mL (≈ 32.7 µM) | MBC [11]: 31.2 µg/mL (≈ 65.3 µM) | MBC [12]: 15.6 µg/mL (≈ 32.7 µM) | MBC [13]: 62.4 µg/mL (≈ 131 µM) | MBC [14]: 31.2 µg/mL (≈ 65.3 µM) | MBC [15]: 62.4 µg/mL (≈ 131 µM) | MFC [30]: 3.9 µg/mL (≈ 8.17 µM) | MFC [31]: 7.8 µg/mL (≈ 16.3 µM) | MFC [32]: 15.6 µg/mL (≈ 32.7 µM) | MFC [33]: 15.6 µg/mL (≈ 32.7 µM) | MFC [34]: 7.8 µg/mL (≈ 16.3 µM) | MFC [35]: 31.2 µg/mL (≈ 65.3 µM) | MFC [36]: 15.6 µg/mL (≈ 32.7 µM) | MFC [37]: 31.2 µg/mL (≈ 65.3 µM) | MFC [38]: 62.5 µg/mL (≈ 131 µM) | MFC [39]: 62.5 µg/mL (≈ 131 µM) | MFC [40]: 15.6 µg/mL (≈ 32.7 µM) | MFC [41]: inactive | MFC [42]: inactive | MFC [43]: 31.2 µg/mL (≈ 65.3 µM) | IC50 [48]: 21.6 µg/mL (≈ 45.2 µM)
